Assay results taken from ChEMBL document CHEMBL5260847, “Current scenario of indole derivatives with potential anti-drug-resistant cancer activity” (Eur J Med Chem, 2020).
Blank lines part the entries; values can stand above or below the compound they belong to.

Key:
[1] = test system: PC-3; assay: Cytotoxicity activity against human PC-3 cells assessed as reduction in cell viability by MTT assay; type: functional, cell-based
[2] = test system: CWR22R; assay: Cytotoxicity activity against human 22Rv1 assessed as reduction in cell viability by MTT assay; type: functional, cell-based
[3] = Selectivity index, ratio of IC50 for antiproliferative activity against human MCF-10A cells to IC50 for antiproliferative activity against […] cells by MTT assay; type: toxicity, cell-based; conditions: MCF-10A cells and IEC-6 cells, read-out: Selectivity Index
[4] = test system: IEC-6; assay: Antiproliferative activity against rat IEC-6 cells assessed as reduction in cell viability measured after 48 hrs by MTT assay; type: functional, cell-based; conditions: IEC-6, 48 h
[5] = test system: H69AR; assay: Antiproliferative activity against multi-drug resistant human NCI-H69AR assessed as reduction in cell viability; type: functional, cell-based
[6] = test system: ZR-75-1; assay: Antiproliferative activity against human ZR-75-1 cells assessed as reduction in cell viability celltiter-Glo assay; type: functional, cell-based
[7] = test system: HT-29; assay: Antiproliferative activity against human HT-29 cells assessed as reduction in cell viability celltiter-Glo assay; type: functional, cell-based
[8] = test system: A549; assay: Antiproliferative activity against drug-sensitive human A549 cells assessed as reduction in cell viability by MTT assay; type: functional, cell-based
[9] = test system: H69AR; assay: Antiproliferative activity against multidrug resistant human NCI-H69AR assessed as inhibition of cell proliferation by MTT assay; type: functional, cell-based
[10] = test system: A2780; assay: Antiproliferative activity against human A2780 cells assessed as inhibition of cell proliferation measured after 24 hrs by MTT assay; type: functional, cell-based; conditions: A2780, 24 h
[11] = test system: LS180; assay: Antitumor activity against human LS180 cells xenografted in ICR mouse assessed as tumor growth inhibition at 4.5 mg/kg; type: functional; parameters: scale not given: the % may be the effect or the level left
[12] = test system: LS180; assay: Antitumor activity against human LS180 cells xenografted in ICR mouse assessed as tumor growth inhibition at 45 mg/kg; type: functional; parameters: scale not given: the % may be the effect or the level left
[13] = test system: HCT-116; assay: Antiproliferative activity against multi-drug - resistant human HCT-116 cells assessed as reduction in cell viability; type: functional, cell-based
[14] = test system: HCT-15; assay: Antiproliferative activity against multidrug-resistant human HCT-15 cells assessed as reduction in cell viability; type: functional, cell-based
[15] = test system: KB; assay: Cytotoxicity against human KB cells assessed as reduction in cell viability measured after 48 hrs by MTT assay; type: functional, cell-based
[16] = test system: HepG2; assay: Anticancer activity against human HepG2 cells assessed as inhibition of cell growth; type: functional, cell-based
[17] = test system: MCF7; assay: Cytotoxicity activity against human MCF7 cells assessed as reduction in cell viability incubated for 72 hrs by MTT assay; type: functional, cell-based; conditions: MCF7, 72 h
[18] = test system: HepG2; assay: Cytotoxicity activity against human HepG2 cells assessed as reduction in cell viability incubated for 72 hrs by MTT assay; type: functional, cell-based; conditions: HepG2, 72 h
[19] = test system: HT-29; assay: Cytotoxicity activity against human HT-29 cells assessed as reduction in cell growth measured after 72 hrs by MTT assay; type: functional, cell-based; conditions: HT-29, 72 h
[20] = test system: A549; assay: Cytotoxicity activity against human A549 cells assessed as reduction in cell viability incubated for 72 hrs by MTT assay; type: functional, cell-based; conditions: A549, 72 h
[21] = test system: HeLa; assay: Antiproliferative activity against human Hela cells assessed as reduction in cell viability measured after 48 hrs by MTT assay; type: functional, cell-based
[22] = test system: K562; assay: Cytotoxicity against human K562 cells assessed as reduction in cell viability incubated for 72 hrs by MTT assay; type: functional, cell-based; conditions: K562, 72 h
[23] = test system: K562/A02; assay: Antiproliferative activity against human K562/A02 cells assessed as reduction in cell viability measured after 2 days by MTT assay; type: functional, cell-based; conditions: K562/A02, 48 h
[24] = test system: KB; assay: Antiproliferative activity against human KB cells assessed as reduction in cell growth incubated for 2 days by MTT assay; type: functional, cell-based; conditions: 48 h
[25] = test system: HeLa; assay: Anticancer activity against human HeLa cells assessed as inhibition of cell growth; type: functional, cell-based
[26] = Cytotoxicity activity against human U87MG.deltaEGFR cells assessed as reduction in cell viability incubated for 72 hrs by MTT assay; type: functional, cell-based
[27] = test system: LNCaP; assay: Cytotoxicity activity against human LNCaP cells assessed as reduction in cell viability; type: functional, cell-based

Compound: CC(=O)O[C@]1(C)CO[C@@]23CC[C@@]4(C)[C@@](O)(CC[C@H]5Cc6c([nH]c7cc(Cl)ccc67)[C@@]54C)C2=CC(=O)[C@@H]1O3
IC50 [1]: 4.86 µM | IC50 [2]: 3.8 µM

IC50 [7]: 7.25 µM | IC50 [8]: 10.1 µM
Compound: O=C1Nc2ccc(Cl)cc2/C1=N/N=C/c1nc(-c2ccccc2)cs1
selectivity ratio [3]: 1.8 | IC50 [4]: 8.98 µM | IC50 [5]: 16 µM | IC50 [6]: 1.95 µM | IC50 [9]: 16.6 µM

IC50 [10]: 9.3 µM
Compound: Fc1ccc(C2=NCc3c([nH]c4ccccc34)S2)cc1

Compound: CCO[C@]1(C)C[C@@H]2CN(CCc3c([nH]c4ccccc34)[C@@](C(=O)OC)(c3cc4c(cc3OC)N(C)C3[C@]45CCN4CC=C[C@@](CC)([C@@H](OC(C)=O)[C@]3(O)C(=O)OC)[C@H]45)C2)C1 (some centres undefined)
Activity [11]: 40.7% | Activity [12]: 67.8%

IC50 [13]: 2.06 µM | IC50 [14]: 0.69 µM
Compound: [O-][n+]1onc2c3cc[nH]c3ccc21

Compound: CC[C@@]12CCCN3CCc4c(n(c5ccccc45)[C@H](c4ccc5c(c4)[C@@]46CCN7CCC[C@]8(CC[C@]4(C[C@@H]8C(=O)OC)N5)[C@H]76)C1)[C@H]32
IC50 [15]: 7.8 µM

IC50 [16]: 0.18 µM
Compound: CO/N=C1\C(=O)N(Cc2cn(CCOCCN3C(=O)/C(=N/OC)c4ccccc43)nn2)c2ccccc21

Compound: CCC1CN(C)[C@H]2Cc3c([nH]c4ccccc34)[C@@H](n3c4c(c5c(OC)c([C@H]6C[C@H]7[C@H](CC)CN(C)[C@@H](Cc8c6[nH]c6ccccc86)[C@H]7C(=O)OC)ccc53)CCN3C[C@H]5CC[C@H]4[C@H]3[C@@H]5CC)C[C@@H]1[C@@H]2C(=O)OC (single isomer, unassigned)
IC50 [17]: 11.3 µM | IC50 [18]: 12.6 µM | IC50 [19]: 11.4 µM | IC50 [20]: 10.2 µM

IC50 [21]: > 100 µM
Compound: O=Cc1c[nH]c2ccccc12 [3-FORMYLINDOLE]

Compound: COc1cccc2c1C(=O)c1c(O)c3c(c(O)c1C2=O)C[C@@](O)(C(=O)CO)C[C@@H]3O[C@H]1C[C@H](N)[C@H](O)[C@H](C)O1 [DOXORUBICIN]
IC50 [22]: > 168 µM | IC50 [19]: 1.48 µM

IC50 [23]: 10.6 µM | IC50 [24]: 1.02 µM | IC50 [16]: 6.94 µM | IC50 [25]: > 50 µM
Compound: COc1cc([C@@H]2c3cc4c(cc3[C@@H](O[C@@H]3O[C@@H]5CO[C@@H](C)O[C@H]5[C@H](O)[C@H]3O)[C@H]3COC(=O)[C@H]23)OCO4)cc(OC)c1O [ETOPOSIDE]

Compound: COC(=O)[C@H]1[C@H]2C[C@@H]3c4[nH]c5cc(OC)ccc5c4CCN3C[C@H]2C[C@@H](OC(=O)c2cc(OC)c(OC)c(OC)c2)[C@@H]1OC [RESERPINE]
IC50 [26]: 9.15 µM

Compound: CC[C@]1(O)C[C@H]2CN(CCc3c([nH]c4ccccc34)[C@@](C(=O)OC)(c3cc4c(cc3OC)N(C=O)[C@H]3[C@@](O)(C(=O)OC)[C@H](OC(C)=O)[C@]5(CC)C=CCN6CC[C@]43[C@@H]65)C2)C1 [VINCRISTINE]
IC50 [27]: 2.6 µM
